Data set [1] in a line: in vivo. The note with it: Sprague-Dawley, rat, iv, 5 mg/kg.
Data set [2] can be described thus: in vivo. The note with it: Sprague-Dawley, rat, po, 25 mg/kg.
The nature of data set [3]: in vivo. The note with it: Sprague-Dawley, rat, iv, 5 mg/kg. This is another data set of the same source.

By AUC(0-inf) is commonly meant the area under the concentration-time curve extrapolated to infinity. Low readings indicate low exposure, high ones high exposure. One may read the Cmax as the maximum level reached in the sampled fluid or tissue. `Cc1cn(-c2cc(NC(=O)c3ccc4c(c3)C[C@H](N(C)c3cncnc3)C4)cc(C(F)(F)F)c2)cn1` registered an AUC(0-inf) in “in vivo [1]” of 16900 ng·h/mL. For the same molecule, the Cmax in “in vivo [2]” is 15400 ng/mL; in “in vivo [3]”, 14700 ng/mL.

These data come from ChEMBL document CHEMBL4406813, “2-Amino-2,3-dihydro-1H-indene-5-carboxamide-Based Discoidin Domain Receptor 1 (DDR1) Inhibitors: Design, Synthesis, and in Vivo Antipancreatic Cancer Efficacy” (J Med Chem, 2019).
